Measured values taken from patent US8461160B2, “Dihydropyrimidinones” (Hoffmann-La Roche, Inc., priority 2009, dated 2013).

Target: T1, BACE2 (Homo sapiens, UniProt Q9Y5Z0)
T1 construct: BACE2 enzyme ectodomain (derived from plasmid “pET17b-T7-hu proBACE2”) was prepared as described in Ostermann et al; T7 tag (N); made in house
T1 sequence (Q9Y5Z0 21-473 limits assumed): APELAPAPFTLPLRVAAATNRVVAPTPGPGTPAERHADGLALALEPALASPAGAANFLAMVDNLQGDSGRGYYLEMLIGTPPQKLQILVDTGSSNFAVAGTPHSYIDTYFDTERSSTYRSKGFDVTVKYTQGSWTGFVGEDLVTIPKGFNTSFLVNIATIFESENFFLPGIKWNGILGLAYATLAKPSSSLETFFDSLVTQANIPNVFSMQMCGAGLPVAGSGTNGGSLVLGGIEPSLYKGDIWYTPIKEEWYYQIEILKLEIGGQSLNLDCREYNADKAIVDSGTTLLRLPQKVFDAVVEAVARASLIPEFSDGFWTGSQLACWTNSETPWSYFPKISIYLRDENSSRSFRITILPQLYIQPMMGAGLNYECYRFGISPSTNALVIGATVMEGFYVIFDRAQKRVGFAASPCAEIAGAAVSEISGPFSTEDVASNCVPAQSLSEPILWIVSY
Experiment: Fluorescent-peptide cleavage assay for BACE2 inhibition
Format: biochemical
Conditions: BACE2 enzyme ectodomain, fluorescent peptide WS EVNLD AEFRC-MR121, assay buffer pH 4.5, room temperature
In short: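 Pro-enzyme BACE2 was activated at 80 nM for 1 h at room temperature in 100 mM Na-acetate, 20 mM EDTA, 0.05% BSA, pH 4.5, then preincubated 10 min with compound. IC50 from sigmoidal dose-response fit.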

## CN1C(=O)C(C)(C)[C@@](C)(c2cc(NC(=O)c3ncoc3-c3ccccc3)ccc2F)N=C1N [Example 109, 5-Phenyl-oxazole-4-carboxylic acid [3-((S)-2-amino-1,4,5,5-tetramethyl-6-oxo-1,4,5,6-tetrahydro-pyrimidin-4-yl)-4-fluoro-phenyl]amide]
  IC50: 170 nM

## CN1C(=O)C(C)(C)[C@@](C)(c2cc(NC(=O)c3ccc(C(F)(F)F)cn3)ccc2F)N=C1N [Example 110, 5-Trifluoromethyl-pyridine-2-carboxylic acid [3-((S)-2-amino-1,4,5,5-tetramethyl-6-oxo-1,4,5,6-tetrahydro-pyrimidin-4-yl)-4-fluoro-phenyl]amide]
  IC50: 20 nM

## CN1C(=O)C(C)(C)[C@@](C)(c2cc(NC(=O)c3nccn3C)ccc2F)N=C1N [Example 111, 1-Methyl-1H-imidazole-2-carboxylic acid [3-((S)-2-amino-1,4,5,5-tetramethyl-6-oxo-1,4,5,6-tetrahydro-pyrimidin-4-yl)-4-fluoro-phenyl]amide]
  IC50: 190 nM

## CN1C(=O)C(C)(C)[C@@](C)(c2cc(NC(=O)c3cn(C)cn3)ccc2F)N=C1N [Example 112, 1-Methyl-1H-imidazole-4-carboxylic acid [3-((S)-2-amino-1,4,5,5-tetramethyl-6-oxo-1,4,5,6-tetrahydro-pyrimidin-4-yl)-4-fluoro-phenyl]amide]
  IC50: 1260 nM

## COc1ccc(C(=O)Nc2ccc(F)c([C@@]3(C)N=C(N)N(C)C(=O)C3(C)C)c2)nc1 [Example 113, 5-Methoxy-pyridine-2-carboxylic acid [3-((S)-2-amino-1,4,5,5-tetramethyl-6-oxo-1,4,5,6-tetrahydro-pyrimidin-4-yl)-4-fluoro-phenyl]amide]
  IC50: 21 nM

## CN1C(=O)C(C)(C)[C@@](C)(c2cc(NC(=O)c3ccc(F)cn3)ccc2F)N=C1N [Example 114, 5-Fluoro-pyridine-2-carboxylic acid [3-((S)-2-amino-1,4,5,5-tetramethyl-6-oxo-1,4,5,6-tetrahydro-pyrimidin-4-yl)-4-fluoro-phenyl]amide]
  IC50: 43 nM

## CN1C(=O)C(C)(C)[C@@](C)(c2cc(NC(=O)c3ccc(C#N)cn3)ccc2F)N=C1N [Example 115, 5-Cyano-pyridine-2-carboxylic acid [3-((S)-2-amino-1,4,5,5-tetramethyl-6-oxo-1,4,5,6-tetrahydro-pyrimidin-4-yl)-4-fluoro-phenyl]amide]
  IC50: 63 nM

## Cc1cc(C(=O)Nc2ccc(F)c([C@@]3(C)N=C(N)N(C)C(=O)C3(C)C)c2)no1 [Example 116, 5-Methyl-isoxazole-3-carboxylic acid [3-((S)-2-amino-1,4,5,5-tetramethyl-6-oxo-1,4,5,6-tetrahydro-pyrimidin-4-yl)-4-fluoro-phenyl]amide]
  IC50: 840 nM

## CN1C(=O)C(C)(C)[C@@](C)(c2cc(NC(=O)c3ncco3)ccc2F)N=C1N [Example 117, Oxazole-2-carboxylic acid [3-((S)-2-amino-1,4,5,5-tetramethyl-6-oxo-1,4,5,6-tetrahydro-pyrimidin-4-yl)-4-fluoro-phenyl]amide]
  IC50: 230 nM

## CN1C(=O)C(C)(C)[C@@](C)(c2cc(NC(=O)c3ncc(C(F)(F)F)cc3Cl)ccc2F)N=C1N [Example 118, 3-Chloro-5-trifluoromethyl-pyridine-2-carboxylic acid [3-((S)-2-amino-1,4,5,5-tetramethyl-6-oxo-1,4,5,6-tetrahydro-pyrimidin-4-yl)-4-fluoro-phenyl]amide]
  IC50: 19 nM

## CN1C(=O)C(C)(C)[C@@](C)(c2cc(NC(=O)c3nc(Cl)ccc3C(F)(F)F)ccc2F)N=C1N [Example 119, 6-Chloro-3-trifluoromethyl-pyridine-2-carboxylic acid [3-((S)-2-amino-1,4,5,5-tetramethyl-6-oxo-1,4,5,6-tetrahydro-pyrimidin-4-yl)-4-fluoro-phenyl]amide]
  IC50: 560 nM

## CN1C(=O)C(C)(C)[C@@](C)(c2cc(NC(=O)c3cn4cc(Cl)ccc4n3)ccc2F)N=C1N [Example 120, 6-Chloro-imidazo[1,2-a]pyridine-2-carboxylic acid [3-((S)-2-amino-1,4,5,5-tetramethyl-6-oxo-1,4,5,6-tetrahydro-pyrimidin-4-yl)-4-fluoro-phenyl]amide]
  IC50: 43 nM

## CN1C(=O)C(C)(C)[C@@](C)(c2cc(NC(=O)c3ccn(C(F)F)n3)ccc2F)N=C1N [Example 121, 1-Difluoromethyl-1H-pyrazole-3-carboxylic acid [3-((S)-2-amino-1,4,5,5-tetramethyl-6-oxo-1,4,5,6-tetrahydro-pyrimidin-4-yl)-4-fluoro-phenyl]amide]
  IC50: 17 nM

## CN1C(=O)C(OCc2ccccc2)[C@@](C)(c2cc(NC(=O)c3ccc(Cl)cn3)ccc2F)N=C1N (stereo partly drawn) [Example 122, 5-Chloro-pyridine-2-carboxylic acid [3-((R)-2-amino-5-benzyloxy-1,4-dimethyl-6-oxo-1,4,5,6-tetrahydro-pyrimidin-4-yl)-4-fluoro-phenyl]amide]
  IC50: 10 nM

## CN1C(=O)C(O)[C@@](C)(c2cc(NC(=O)c3ccccn3)ccc2F)N=C1N (stereo partly drawn) [Example 123, Pyridine-2-carboxylic acid [3-((R)-2-amino-5-hydroxy-1,4-dimethyl-6-oxo-1,4,5,6-tetrahydro-pyrimidin-4-yl)-4-fluoro-phenyl]amide]
  IC50: 350 nM

## C[C@@]1(c2cccc(NC(=O)c3ccc(Cl)cn3)c2)CC(=O)N(CC2CC2)C(N)=N1 [Example 124, 5-Chloro-pyridine-2-carboxylic acid [3-((S)-2-amino-1-cyclopropylmethyl-4-methyl-6-oxo-1,4,5,6-tetrahydro-pyrimidin-4-yl)-phenyl]amide]
  IC50: 42 nM

## CN1C(=O)C[C@@](C)(c2ccc(F)c(NC(=O)c3ccc(Cl)cn3)c2)N=C1N [Example 125, 5-Chloro-pyridine-2-carboxylic acid [5-((S)-2-amino-1,4-dimethyl-6-oxo-1,4,5,6-tetrahydro-pyrimidin-4-yl)-2-fluoro-phenyl]amide]
  IC50: 310 nM

## CN1C(=O)C(C)(C)[C@@](C)(c2cc(NC(=O)c3ccc(Cl)cn3)ccc2Cl)N=C1N [Example 126, 5-Chloro-pyridine-2-carboxylic acid [3-((S)-2-amino-1,4,5,5-tetramethyl-6-oxo-1,4,5,6-tetrahydro-pyrimidin-4-yl)-4-chloro-phenyl]amide]
  IC50: 36 nM

## CN1C(=O)C[C@]2(CCc3ccc(NC(=O)c4ccc(Cl)cn4)cc32)N=C1N [Example 127, N-[(1S)-2′-amino-1′-methyl-6′-oxo-2,3,5′,6′-tetrahydro-1′H-spiro[indene-1,4′-pyrimidin]-6-yl]-5-chloropyridine-2-carboxamide]
  IC50: 160 nM

## CN1C(=O)C[C@]2(CCc3ccc(NC(=O)c4ccccn4)cc32)N=C1N [Example 128, N-[(1S)-2′-amino-1′-methyl-6′-oxo-2,3,5′,6′-tetrahydro-1′H-spiro[indene-1,4′-pyrimidin]-6-yl]pyridine-2-carboxamide]
  IC50: 1670 nM

## CN1C(=O)C[C@]2(CCc3ccc(NC(=O)c4ccc(OCC(F)(F)F)cn4)cc32)N=C1N [Example 129, N-[(1S)-2′-amino-1′-methyl-6′-oxo-2,3,5′,6′-tetrahydro-1′H-spiro[indene-1,4′-pyrimidin]-6-yl]-5-(2,2,2-trifluoro-ethoxy)-pyridine-2-carboxamide]
  IC50: 220 nM

## CN1C(=O)C[C@]2(CCc3ccc(NC(=O)c4ncccc4C(F)(F)F)cc32)N=C1N [Example 130, N-[(1S)-2′-amino-1′-methyl-6′-oxo-2,3,5′,6′-tetrahydro-1′H-spiro[indene-1,4′-pyrimidin]-6-yl]-3-trifluoromethyl-pyridine-2-carboxamide]
  IC50: 1340 nM
